Where a SMILES comes first, the peptide text is derived from it. The star is where a group is joined. X1 = CC(C)CC(CP(=O)(O)[C@@H](N)CCc1ccccc1)C(=O)*
Molecular target: Leucyl-cystinyl aminopeptidase (Homo sapiens) (UniProt Q9UIQ6)
Assay: Inhibition of human IRAP using L-leucine 7-amido-4-methyl coumarin substrate by microplate fluorescence reader based assay

Chain of Leucyl-cystinyl aminopeptidase (Homo sapiens) (Q9UIQ6 whole entry, looked up): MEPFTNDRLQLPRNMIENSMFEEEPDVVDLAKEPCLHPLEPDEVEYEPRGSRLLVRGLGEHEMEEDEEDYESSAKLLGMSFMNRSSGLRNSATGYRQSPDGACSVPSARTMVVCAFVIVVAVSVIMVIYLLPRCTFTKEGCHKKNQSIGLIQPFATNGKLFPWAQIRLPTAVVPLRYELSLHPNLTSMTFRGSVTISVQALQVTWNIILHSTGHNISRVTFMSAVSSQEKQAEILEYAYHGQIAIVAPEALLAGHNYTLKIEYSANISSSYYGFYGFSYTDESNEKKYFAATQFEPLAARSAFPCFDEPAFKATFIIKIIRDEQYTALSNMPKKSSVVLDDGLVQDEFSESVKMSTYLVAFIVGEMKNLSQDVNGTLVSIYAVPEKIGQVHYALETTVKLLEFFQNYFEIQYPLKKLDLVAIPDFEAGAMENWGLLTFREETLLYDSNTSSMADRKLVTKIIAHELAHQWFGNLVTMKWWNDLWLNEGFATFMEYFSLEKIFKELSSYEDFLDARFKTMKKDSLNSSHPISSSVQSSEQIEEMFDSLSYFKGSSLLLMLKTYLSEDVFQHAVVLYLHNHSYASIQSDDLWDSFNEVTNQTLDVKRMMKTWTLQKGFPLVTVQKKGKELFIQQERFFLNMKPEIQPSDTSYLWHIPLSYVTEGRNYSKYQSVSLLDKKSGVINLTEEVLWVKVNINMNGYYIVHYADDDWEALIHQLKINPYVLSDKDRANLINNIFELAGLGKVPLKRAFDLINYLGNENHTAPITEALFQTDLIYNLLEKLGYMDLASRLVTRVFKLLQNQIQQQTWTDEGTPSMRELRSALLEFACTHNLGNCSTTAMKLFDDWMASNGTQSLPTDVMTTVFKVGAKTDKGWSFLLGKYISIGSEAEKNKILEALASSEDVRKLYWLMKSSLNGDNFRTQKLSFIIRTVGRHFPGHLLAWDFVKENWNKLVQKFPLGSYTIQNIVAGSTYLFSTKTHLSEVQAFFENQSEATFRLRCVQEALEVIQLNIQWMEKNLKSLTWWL

SMILES	IC50 [nM]
C#CC[C@H](CP(=O)(O)[C@@H](N)CCc1ccccc1)C(=O)N[C@@H](Cc1ccccc1)C(N)=O	2
NC(=O)[C@H](Cc1ccccc1)NC(=O)[C@H](CCC(c1ccccc1)c1ccccc1)CP(=O)(O)[C@@H](N)CCc1ccccc1	32
CC(C)CC(CP(=O)(O)[C@@H](N)CCc1ccccc1)C(=O)N[C@@H](CCCCN)C(=O)N[C@@H](Cc1cnc[nH]1)C(=O)N[C@@H](Cc1cnc[nH]1)C(=O)N[C@@H](C)C(=O)N[C@@H](Cc1ccccc1)C(=O)N[C@@H](CO)C(=O)N[C@@H](Cc1ccccc1)C(=O)N[C@@H](CCCCN)C(N)=O (stereo partly drawn) (X1-KHHAFSFK-NH2)	7.7

From BindingDB's records for doi:10.1016/j.bmcl.2019.02.034 (Wroclaw University of Technology, 2019)
